According to US20240270821A1, “GIP/GLP1/GCG TRI-RECEPTOR AGONISTS AND USES THEREOF” (priority 2023, published 2024):
Where two headings read alike, the source gives them in different places. Starred links: 1 amine or outer side, 2 acyl side, 3 side chain; linkers in the order of their positions; H or OH if unused. Non-standard residues stand in square brackets, D forms with d. Groups on a side chain read outwards from the residue. *: point of attachment. C20 diacid = O=C(O)CCCCCCCCCCCCCCCCCCC(=O)*; C18 diacid = O=C(O)CCCCCCCCCCCCCCCCC(=O)*; γGlu = O=C(O)[C@H](CCC(=O)[*:2])N[*:1]; αMe4Pal = C[C@](N)(Cc1ccncc1)C(=O)O; αMeY = C[C@](N)(Cc1ccc(O)cc1)C(=O)O; 4Pal = N[C@@H](Cc1ccncc1)C(=O)O; αMeL = CC(C)C[C@](C)(N)C(=O)O; Orn = NCCC[C@H](N)C(=O)O; AEEA = NCCOCCOCC(=O)O; Aib = CC(C)(N)C(=O)O

Columns and labels:
Type in all cases: cell-based
hGLP-1R [1] = biological target: T1, hGLP-1R (Homo sapiens, UniProt P43220); experiment: Functional cAMP activation in the presence of 0.1% casein (no HSA);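 further: intracellular cAMP rise after 30 min at 37 °C read by HTRF, normalized between buffer only (0%) and maximal control ligand (100%), four-parameter variable-slope fit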
hGLP-1R [2] = biological target: T1, hGLP-1R; experiment: Functional cAMP activity in the presence of 1% HSA
hGIPR [3] = biological target: T2, hGIPR (Homo sapiens, UniProt P48546); experiment: Functional cAMP activity in the presence of 1% HSA
T2 sequence (P48546 22-466): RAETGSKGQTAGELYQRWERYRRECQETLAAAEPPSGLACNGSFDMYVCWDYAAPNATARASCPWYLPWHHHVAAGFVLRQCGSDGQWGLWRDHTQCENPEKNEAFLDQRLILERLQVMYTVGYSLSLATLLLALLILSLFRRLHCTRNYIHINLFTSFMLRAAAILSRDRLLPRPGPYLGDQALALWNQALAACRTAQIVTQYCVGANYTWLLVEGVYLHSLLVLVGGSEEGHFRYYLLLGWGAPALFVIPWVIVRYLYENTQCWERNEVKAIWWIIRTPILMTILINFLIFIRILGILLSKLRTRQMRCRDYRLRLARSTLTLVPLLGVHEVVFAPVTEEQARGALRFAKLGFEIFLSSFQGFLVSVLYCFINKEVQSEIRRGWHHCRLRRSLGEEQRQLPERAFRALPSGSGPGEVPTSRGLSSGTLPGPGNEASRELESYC

hGIPR [4] = biological target: T2, hGIPR; experiment: Functional cAMP activation in the presence of 0.1% casein (no HSA);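 further: intracellular cAMP rise after 30 min at 37 °C read by HTRF against a standard curve, scaled between buffer alone (0%) and top control ligand concentration (100%), four-parameter fit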
human GcgR = human GcgR (Homo sapiens, UniProt P47871); experiment: Functional cAMP activity in the presence of 1% HSA
hGcgR = hGcgR (Homo sapiens, UniProt P47871); experiment: Functional cAMP activation in the presence of 0.1% casein (no HSA);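 further: intracellular cAMP rise after 30 min at 37 °C, read by HTRF against a cAMP standard curve, scaled from buffer only (0%) to maximal control ligand response (100%)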
[5] = in the presence of 0.1% casein (no HSA), geometric mean, read-out: Relative cAMP EC50, hGLP-1R
[6] = read-out: cAMP Rel EC50, hGLP-1R
[7] = in the presence of 0.1% casein (no HSA), geometric mean, read-out: Relative cAMP EC50, hGIPR
[8] = in the presence of 0.1% casein (no HSA), geometric mean, read-out: Relative cAMP EC50, hGcgR
[9] = read-out: Relative cAMP EC50, hGLP-1R
[10] = read-out: Relative cAMP EC50, hGIPR
[11] = read-out: Relative cAMP EC50, hGcgR
[12] = HEK-293 clonal cell line, in the presence of 1% HSA, geometric mean of relative EC50, read-out: cAMP Rel EC50, hGLP-1R
[13] = HEK-293 clonal cell line, in the presence of 1% HSA, geometric mean of relative EC50, read-out: cAMP Rel EC50, hGIPR
[14] = HEK-293 clonal cell line, in the presence of 1% HSA, geometric mean of relative EC50, read-out: cAMP Rel EC50, hGcgR

T1 sequence (P43220 24-463): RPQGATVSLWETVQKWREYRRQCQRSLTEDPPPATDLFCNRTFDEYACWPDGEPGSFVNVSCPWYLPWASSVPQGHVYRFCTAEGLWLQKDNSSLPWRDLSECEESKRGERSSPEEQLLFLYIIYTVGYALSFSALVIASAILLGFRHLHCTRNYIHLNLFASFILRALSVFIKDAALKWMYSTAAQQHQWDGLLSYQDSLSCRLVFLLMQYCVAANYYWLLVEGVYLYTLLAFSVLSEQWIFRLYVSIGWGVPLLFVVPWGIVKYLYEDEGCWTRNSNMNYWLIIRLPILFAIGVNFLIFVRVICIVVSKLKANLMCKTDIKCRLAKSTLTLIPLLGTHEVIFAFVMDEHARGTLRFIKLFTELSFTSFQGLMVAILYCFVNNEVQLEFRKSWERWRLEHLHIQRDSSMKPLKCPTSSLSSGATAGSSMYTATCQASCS
Sequence of human GcgR (P47871 26-477): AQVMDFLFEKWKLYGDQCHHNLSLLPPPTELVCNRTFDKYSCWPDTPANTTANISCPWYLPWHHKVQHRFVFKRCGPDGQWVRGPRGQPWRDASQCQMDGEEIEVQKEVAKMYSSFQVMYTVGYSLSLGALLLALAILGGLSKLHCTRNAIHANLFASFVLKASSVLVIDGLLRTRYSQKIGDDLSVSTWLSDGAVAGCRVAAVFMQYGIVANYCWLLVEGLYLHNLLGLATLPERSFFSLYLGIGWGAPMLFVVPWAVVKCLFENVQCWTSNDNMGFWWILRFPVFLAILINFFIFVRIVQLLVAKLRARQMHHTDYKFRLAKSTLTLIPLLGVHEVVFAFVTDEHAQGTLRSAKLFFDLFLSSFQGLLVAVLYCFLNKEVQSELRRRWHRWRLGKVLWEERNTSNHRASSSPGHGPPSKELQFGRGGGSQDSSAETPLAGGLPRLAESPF
Sequence of hGcgR (P47871 26-477): as above

Substance	EC50 (hGLP-1R [1]; [5])	EC50 (hGLP-1R [2]; [6])	EC50 (hGIPR [3]; read-out: cAMP Rel EC50, hGIPR)	EC50 (hGIPR [4]; [7])	EC50 (human GcgR; read-out: cAMP Rel EC50, hGcgR)	EC50 (hGcgR; [8])	other results
H-Y[Aib]QGTFTSDFS[Orn][αMeL]LDKK([AEEA-γGlu-γGlu-C18 diacid])AQ[Aib]AFIEYLLE[Aib]GHSSGAPPPSGS-NH2 [Example 243]	6.46 nM	610 nM	12.1 nM	0.178 nM	711 nM	6.86 nM	
H-Y[Aib]QGTFTSDFS[Orn][αMeL]LDKK([γGlu-AEEA-γGlu-C18 diacid])AQ[Aib]AFIEYLLE[Aib]GESSGAPPPSGS-NH2 [Example 244]	7.68 nM	645 nM	18.8 nM	0.0972 nM	1230 nM	4.81 nM	
H-Y[Aib]QGTFTSDFS[Orn][αMeL]LDKK([γGlu-AEEA-γGlu-C18 diacid])AQ[Aib]AFIEYLLE[Aib]GHSSGAPPPSGS-NH2 [Example 245]	5.99 nM	540 nM	10.5 nM	0.0684 nM	1120 nM	7.07 nM	
H-Y[Aib]QGTFTSDFS[Orn][αMeL]LDKK([γGlu-AEEA-γGlu-C18 diacid])AQ[Aib]AFIEYLLE[Aib]GPSSGAPPPSG[4Pal]-NH2 [Example 277]	5.56 nM	639 nM	13.3 nM	0.0672 nM	1690 nM	10.6 nM	
H-Y[Aib]QGTFTSDFS[Orn][αMeL]LDKK([γGlu-γGlu-C18 diacid])AQ[Aib]AFIEYLLEGGPSSG[Aib]PPPGGS-NH2 [Example 771]		665 nM	44.2 nM		955 nM		EC50 (hGLP-1R [1]; [9]): 4.38 nM; EC50 (hGIPR [4]; [10]): 0.232 nM; EC50 (hGcgR; [11]): 5.05 nM
H-Y[Aib]QGTFTSDFS[Orn][αMeL]LDKK([γGlu-γGlu-C18 diacid])AQ[Aib]AFIEYLLEGGPSS[Aib]APPPGGS-NH2 [Example 770]		240 nM	18.2 nM		390 nM		EC50 (hGLP-1R [1]; [9]): 3.91 nM; EC50 (hGIPR [4]; [10]): 0.244 nM; EC50 (hGcgR; [11]): 5.37 nM
H-Y[Aib]QGTFTSDFS[Orn][αMeL]LDKK([γGlu-γGlu-C18 diacid])AQ[Aib]AFIEYLLE[Aib]GPSSGAPPPSGS-NH2 [Example 201]	3.16 nM	679 nM	14.3 nM	0.0553 nM	969 nM	3.84 nM	
H-Y[Aib]QGTFTSDFS[Orn][αMeL]LDKK([γGlu-γGlu-γGlu-C18 diacid])AQ[Aib]AFIEYLLE[Aib]GPSSGAPPPSGS-NH2 [Example 202]	4.79 nM	376 nM	11.7 nM	0.0965 nM	697 nM	11.4 nM	
H-Y[Aib]QGTFTSDFS[Orn][αMeL]LD[Orn]K([γGlu-γGlu-C18 diacid])AQ[Aib]AFIEYLLEGGPSSGAPPPGGSEE-NH2 [Example 1048]	6.23 nM			0.356 nM		6.9 nM	EC50 (hGLP-1R [2]; [12]): 1900 nM; EC50 (hGIPR [3]; [13]): 108 nM; EC50 (human GcgR; [14]): 1930 nM
H-Y[Aib]QGTFTSDFS[Orn][αMeL]LD[Orn]K([γGlu-γGlu-C18 diacid])AQ[Aib]AFIE[αMe4Pal]LLEGGPSSGAPPPGGSEE-NH2 [Example 1050]	7.65 nM			0.152 nM		6.8 nM	EC50 (hGLP-1R [2]; [12]): 1240 nM; EC50 (hGIPR [3]; [13]): 68.5 nM; EC50 (human GcgR; [14]): 2040 nM
H-Y[Aib]QGTFTSDFS[Orn][αMeL]LD[Orn]K([γGlu-γGlu-C18 diacid])AQ[Aib]AFIE[αMeY]LLEGGPSSGAPPPGGSEE-NH2 [Example 1049]	2.23 nM			0.24 nM		6.33 nM	EC50 (hGLP-1R [2]; [12]): 780 nM; EC50 (hGIPR [3]; [13]): 56.2 nM; EC50 (human GcgR; [14]): 1280 nM
H-Y[Aib]QGTFTSDYSI[αMeL]LDKIAAK([AEEA-AEEA-γGlu-C20 diacid])QFVEWLLA[Aib]GPSSGEPPPSEG-NH2 [Example 324]	4.4 nM	1060 nM	20.7 nM	0.164 nM	1410 nM	5.74 nM	
H-Y[Aib]QGTFTSDYSI[αMeL]LDKIAAK([AEEA-AEEA-γGlu-C20 diacid])QFVEYLIAGGPSSGEPPPSEG-NH2 [Example 312]	2.66 nM	589 nM	97.7 nM	0.504 nM	4070 nM	7.5 nM	
H-Y[Aib]QGTFTSDYSI[αMeL]LDKQAAK([AEEA-AEEA-γGlu-C20 diacid])AFVEWLLA[Aib]GPSSGEPPPSEG-NH2 [Example 317]	1.32 nM	234 nM	62.8 nM	0.474 nM	1500 nM	2.42 nM	
H-Y[Aib]QGTFTSDYSI[αMeL]LDKQAAK([AEEA-AEEA-γGlu-C20 diacid])QFIEWLIEGGPSSGEPPPGAE-NH2 [Example 319]							EC50 (hGLP-1R [1]): 0.947 nM; EC50 (hGLP-1R [2]): 119 nM; EC50 (hGIPR [3]): 60.1 nM; EC50 (hGIPR [4]): 0.485 nM; EC50 (human GcgR): 1650 nM; EC50 (hGcgR): 4.81 nM
H-Y[Aib]QGTFTSDYSI[αMeL]LDKQAAK([AEEA-AEEA-γGlu-C20 diacid])QFIEWLIEGGPSSGEPPPGEG-NH2 [Example 318]	0.698 nM	111 nM	52.8 nM	0.378 nM	1970 nM	5.03 nM	
H-Y[Aib]QGTFTSDYSI[αMeL]LDKQAAK([AEEA-AEEA-γGlu-C20 diacid])QFVEWLIAGGPSSGEPPPAEG-NH2 [Example 332]	1.24 nM	298 nM	78.2 nM	0.413 nM	3340 nM	11.8 nM	
H-Y[Aib]QGTFTSDYSI[αMeL]LDKQAAK([AEEA-AEEA-γGlu-C20 diacid])QFVEWLIA[Aib]GPSSGEPPPGEG-NH2 [Example 333]	0.705 nM	182 nM	36.3 nM	0.265 nM	1410 nM	7.09 nM	
H-Y[Aib]QGTFTSDYSI[αMeL]LDKQAAK([AEEA-AEEA-γGlu-C20 diacid])QFVEWLIA[Aib]GPSSGEPPPGSG-NH2 [Example 335]	0.461 nM	150 nM	46.7 nM	0.292 nM	1410 nM	6.11 nM	
H-Y[Aib]QGTFTSDYSI[αMeL]LDKQAAK([AEEA-AEEA-γGlu-C20 diacid])QFVEWLIA[Aib]GPSSGEPPPGTG-NH2 [Example 336]	0.921 nM	227 nM	64.4 nM	0.306 nM	1740 nM	7.05 nM	
H-Y[Aib]QGTFTSDYSI[αMeL]LDKQAAK([AEEA-AEEA-γGlu-C20 diacid])QFVEWLIA[Aib]GPSSGEPPPSEG-NH2 [Example 326]	0.555 nM	172 nM	83.7 nM	0.3 nM	1500 nM	5.34 nM	
H-Y[Aib]QGTFTSDYSI[αMeL]LDKQAAK([AEEA-AEEA-γGlu-C20 diacid])QFVEWLLA[Aib]GPSSGAPPPSEG-NH2 [Example 327]	1.61 nM	473 nM	63.3 nM	0.312 nM	1400 nM	3.04 nM	
H-Y[Aib]QGTFTSDYSI[αMeL]LDKQAAK([AEEA-AEEA-γGlu-C20 diacid])QFVNWLLA[Aib]GPSSGEPPPSEG-NH2 [Example 325]	1.56 nM	371 nM	82.7 nM	0.351 nM	774 nM	2.43 nM	
H-Y[Aib]QGTFTSDYSI[αMeL]LD[Orn]QAAK([AEEA-AEEA-γGlu-C20 diacid])QFVEWLLA[Aib]GPSSGEPPPSEG-NH2 [Example 328]	1.3 nM	462 nM	91.1 nM	0.544 nM	2040 nM	10.3 nM	
